Data from ChEMBL document CHEMBL2321731, “Structure-Based Design of Irreversible Human KAT II Inhibitors: Discovery of New Potency-Enhancing Interactions” (ACS Med Chem Lett, 2013).
Active and inactive are the calls of the source. The calls are words filed in the database; no cut-off is given here.

Tests used:
Brain [1] = test: fAUC in Sprague-Dawley rat brain at 10 mg/kg, sc by equilibrium dialysis method; type: ADME, organism-based; set-up: dose 10 mg/kg, route subcutaneous; conditions: in vivo
[2] = molecular target: T1, Kynurenine/alpha-aminoadipate aminotransferase, mitochondrial (Homo sapiens, UniProt Q8N5Z0); test: Irreversible inhibition of human KAT2 using L-kynurenine as substrate measured every 5 mins over 16 hrs by SpectraMax plate reader analysis
[3] = molecular target: T1, Kynurenine/alpha-aminoadipate aminotransferase, mitochondrial; test: Ratio of Kinact to Ki for human KAT2 using L-kynurenine as substrate by SpectraMax plate reader analysis
Target sequence in this assay (Q8N5Z0 30-425 limits assumed): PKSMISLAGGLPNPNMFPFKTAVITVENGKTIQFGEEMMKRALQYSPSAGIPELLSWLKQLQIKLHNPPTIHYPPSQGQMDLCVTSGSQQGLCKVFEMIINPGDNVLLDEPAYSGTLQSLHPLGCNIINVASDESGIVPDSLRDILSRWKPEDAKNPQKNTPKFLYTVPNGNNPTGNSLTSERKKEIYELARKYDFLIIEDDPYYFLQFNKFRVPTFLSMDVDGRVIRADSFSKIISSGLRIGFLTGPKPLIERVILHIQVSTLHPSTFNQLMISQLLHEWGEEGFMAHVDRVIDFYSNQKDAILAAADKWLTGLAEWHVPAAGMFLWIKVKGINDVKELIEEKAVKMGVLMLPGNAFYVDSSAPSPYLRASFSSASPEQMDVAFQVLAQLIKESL

[4] = system: Kynurenine/alpha-aminoadipate aminotransferase, mitochondrial (Homo sapiens), Q8N5Z0 [K240S,F241G]; test: Binding affinity to C-terminal hexa histidine tagged full length human KAT2 K240S/F241G mutant harboring C-terminal thrombin cleavage site at 1 mM after 2 hrs by X-ray crystallography in presence of 2 mM PLP
Sequence of Kynurenine/alpha-aminoadipate aminotransferase, mitochondrial (Homo sapiens), Q8N5Z0 [K240S,F241G] (Q8N5Z0 whole entry K240S/F241G): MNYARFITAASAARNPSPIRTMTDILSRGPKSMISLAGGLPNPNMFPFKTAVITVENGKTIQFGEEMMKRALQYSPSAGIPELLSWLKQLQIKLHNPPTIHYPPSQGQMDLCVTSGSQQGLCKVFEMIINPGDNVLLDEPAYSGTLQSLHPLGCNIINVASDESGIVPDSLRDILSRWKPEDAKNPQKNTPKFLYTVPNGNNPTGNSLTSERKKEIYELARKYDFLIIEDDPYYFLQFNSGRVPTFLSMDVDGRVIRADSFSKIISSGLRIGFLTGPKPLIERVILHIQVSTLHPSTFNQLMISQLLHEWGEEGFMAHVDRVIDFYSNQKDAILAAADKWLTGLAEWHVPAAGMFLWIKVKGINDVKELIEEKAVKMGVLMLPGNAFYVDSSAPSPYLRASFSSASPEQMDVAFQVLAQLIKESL

Brain [5] = test: Ratio of hydroxamate fAUC to compound fAUC in Sprague-Dawley rat brain at 10 mg/kg, sc by equilibrium dialysis method; type: ADME, organism-based; set-up: dose 10 mg/kg, route subcutaneous; conditions: in vivo
Brain [6] = test: AUC in Sprague-Dawley rat brain at 10 mg/kg, sc by LC-MS/MS analysis; type: ADME, organism-based; set-up: dose 10 mg/kg, route subcutaneous; conditions: in vivo
Rattus norvegicus = test: Decrease in extracellular KYNA level in Sprague-Dawley rat prefrontal cortex at 10 mg/kg, sc measured for 4 hrs by microdialysis method; type: functional, organism-based; set-up: dose 10 mg/kg
[7] = molecular target: T2, Kynurenine--oxoglutarate transaminase 1 (Homo sapiens, UniProt Q16773); test: Inhibition of human KAT1 using L-kynurenine as substrate measured after 16 hrs by SpectraMax plate reader analysis
T2 sequence (Q16773 whole entry): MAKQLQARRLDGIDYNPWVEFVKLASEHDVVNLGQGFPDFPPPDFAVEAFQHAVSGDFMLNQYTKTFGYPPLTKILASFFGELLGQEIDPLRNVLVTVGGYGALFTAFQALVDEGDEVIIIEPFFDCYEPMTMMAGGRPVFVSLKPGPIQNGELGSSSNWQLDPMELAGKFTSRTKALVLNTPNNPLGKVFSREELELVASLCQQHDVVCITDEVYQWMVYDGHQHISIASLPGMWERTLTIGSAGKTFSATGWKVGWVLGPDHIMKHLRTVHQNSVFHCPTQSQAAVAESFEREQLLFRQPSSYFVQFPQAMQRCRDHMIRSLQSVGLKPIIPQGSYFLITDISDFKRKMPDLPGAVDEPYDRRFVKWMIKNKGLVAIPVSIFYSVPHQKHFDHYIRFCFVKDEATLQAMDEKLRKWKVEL

[8] = molecular target: T1, Kynurenine/alpha-aminoadipate aminotransferase, mitochondrial; test: Inhibition of human KAT2 using L-kynurenine as substrate measured after 15-20 hrs by SpectraMax plate reader analysis
Target sequence in this assay (Q8N5Z0 whole entry): as the sequence (Q8N5Z0 whole entry K240S/F241G) above, with S240K, G241F counted along it

[9] = Unbound fraction in Sprague-Dawley rat brain at 10 mg/kg, sc by equilibrium dialysis method; type: ADME, organism-based; set-up: dose 10 mg/kg, route subcutaneous
[10] = molecular target: Kynurenine/alpha-aminoadipate aminotransferase, mitochondrial (Rattus norvegicus) (UniProt Q64602); test: Ratio of Kinact to Ki for rat KAT2 using L-kynurenine as substrate by SpectraMax plate reader analysis
Sequence of Kynurenine/alpha-aminoadipate aminotransferase, mitochondrial (Rattus norvegicus) (Q64602 30-425 limits assumed): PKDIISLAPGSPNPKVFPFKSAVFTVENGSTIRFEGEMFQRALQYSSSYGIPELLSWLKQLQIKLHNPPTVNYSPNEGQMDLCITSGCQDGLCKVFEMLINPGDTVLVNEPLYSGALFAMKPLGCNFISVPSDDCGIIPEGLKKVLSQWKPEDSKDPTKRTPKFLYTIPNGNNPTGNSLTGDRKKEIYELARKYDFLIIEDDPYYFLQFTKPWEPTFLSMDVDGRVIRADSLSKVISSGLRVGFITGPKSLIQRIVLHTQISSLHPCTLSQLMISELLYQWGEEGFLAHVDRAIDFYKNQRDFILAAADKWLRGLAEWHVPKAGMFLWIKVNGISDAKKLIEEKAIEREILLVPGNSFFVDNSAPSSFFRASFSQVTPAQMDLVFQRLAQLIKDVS

[11] = molecular target: Kynurenine--oxoglutarate transaminase 3 (Homo sapiens, UniProt Q6YP21); test: Inhibition of human KAT3 using L-kynurenine as substrate measured after 24 hrs by SpectraMax plate reader analysis
Sequence of Kynurenine--oxoglutarate transaminase 3 (Q6YP21 whole entry): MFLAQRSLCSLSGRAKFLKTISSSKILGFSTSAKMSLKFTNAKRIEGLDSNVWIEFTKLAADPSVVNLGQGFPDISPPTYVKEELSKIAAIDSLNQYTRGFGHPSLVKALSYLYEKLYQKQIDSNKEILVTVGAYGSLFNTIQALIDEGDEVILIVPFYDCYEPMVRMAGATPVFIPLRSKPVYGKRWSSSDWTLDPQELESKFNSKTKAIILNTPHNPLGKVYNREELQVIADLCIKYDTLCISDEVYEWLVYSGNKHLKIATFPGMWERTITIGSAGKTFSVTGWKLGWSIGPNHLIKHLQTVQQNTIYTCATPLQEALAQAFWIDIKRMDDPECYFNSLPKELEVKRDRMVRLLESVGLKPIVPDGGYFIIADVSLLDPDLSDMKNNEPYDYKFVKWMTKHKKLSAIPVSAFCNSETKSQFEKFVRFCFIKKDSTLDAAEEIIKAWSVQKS

Structure (SMILES)	fAUC (Brain [1]) [ng·h/g]	Ki [2] [µM]	Kinact [2] [min⁻¹]	Ratio [3]	Activity [4]	Ratio (Brain [5])	AUC (Brain [6]) [ng·h/g]	inhibition (Rattus norvegicus)	IC50 [7] [µM]	IC50 [8] [µM]	fraction unbound [9]	Ratio [10]	IC50 [11] [µM]
N[C@H]1Cc2cc(Oc3ccccc3)ccc2N(O)C1=O	65	0.0071	0.0108	26800	Active	9	6602	Active	2.04	0.023	0.0099	9070	1.23
N[C@H]1Cc2ccccc2N(O)C1=O	584	0.0142	0.0156	18500	Active	–	1486	Active	30.4	–	0.393	573	9.04
COc1ccc2c(c1)N(O)C(=O)[C@@H](N)C2	–	0.0077	0.0137	31700	Active	–	–	–	15.3	–	–	1840	6.4
